For data set [1], the system named is endothelial cell line bEnd.3. Briefly: Toxic profile in endothelial cell line. Format: cell-based. The method, then: JWH-451 was tested for toxicity in cells expressing GPR124.
The next data set concerns the target T1, GPR124 (Homo sapiens, UniProt Q96PE1).
T1 construct: endogenous in cells; host or cells: T98g human astrocytoma cells
T1 sequence (Q96PE1 34-1338): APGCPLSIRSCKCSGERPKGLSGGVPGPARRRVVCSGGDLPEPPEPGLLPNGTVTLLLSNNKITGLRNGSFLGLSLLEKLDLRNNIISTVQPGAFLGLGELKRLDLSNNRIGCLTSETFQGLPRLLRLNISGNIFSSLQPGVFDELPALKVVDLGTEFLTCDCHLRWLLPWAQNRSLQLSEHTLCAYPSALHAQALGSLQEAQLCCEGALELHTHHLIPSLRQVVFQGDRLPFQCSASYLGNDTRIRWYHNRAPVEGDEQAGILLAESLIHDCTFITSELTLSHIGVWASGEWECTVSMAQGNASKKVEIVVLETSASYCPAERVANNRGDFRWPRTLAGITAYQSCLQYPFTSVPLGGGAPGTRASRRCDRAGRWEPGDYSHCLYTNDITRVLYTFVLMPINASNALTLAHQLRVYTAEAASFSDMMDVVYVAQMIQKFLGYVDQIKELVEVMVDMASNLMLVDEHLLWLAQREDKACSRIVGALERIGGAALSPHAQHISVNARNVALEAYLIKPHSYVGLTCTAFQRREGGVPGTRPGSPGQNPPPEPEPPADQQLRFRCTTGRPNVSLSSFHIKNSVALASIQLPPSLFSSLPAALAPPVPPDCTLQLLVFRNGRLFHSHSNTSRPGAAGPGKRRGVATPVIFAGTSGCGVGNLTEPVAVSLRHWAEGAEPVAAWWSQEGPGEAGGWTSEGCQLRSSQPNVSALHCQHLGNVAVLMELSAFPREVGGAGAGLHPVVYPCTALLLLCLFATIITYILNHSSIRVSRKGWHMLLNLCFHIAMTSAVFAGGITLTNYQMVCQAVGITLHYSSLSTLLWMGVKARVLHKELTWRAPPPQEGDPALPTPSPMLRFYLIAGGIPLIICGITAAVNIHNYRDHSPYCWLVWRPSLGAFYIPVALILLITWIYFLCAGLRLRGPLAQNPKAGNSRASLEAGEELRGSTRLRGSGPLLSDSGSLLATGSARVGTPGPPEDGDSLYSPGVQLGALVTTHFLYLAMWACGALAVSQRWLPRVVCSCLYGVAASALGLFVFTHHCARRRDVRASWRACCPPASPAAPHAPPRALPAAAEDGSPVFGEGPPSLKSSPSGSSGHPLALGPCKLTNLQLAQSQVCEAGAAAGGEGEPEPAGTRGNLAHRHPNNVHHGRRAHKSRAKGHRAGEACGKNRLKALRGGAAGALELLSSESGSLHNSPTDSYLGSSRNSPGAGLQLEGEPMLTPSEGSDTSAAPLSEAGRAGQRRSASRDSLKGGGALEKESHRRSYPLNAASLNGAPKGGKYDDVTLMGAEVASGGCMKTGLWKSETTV
As to the kind of experiment: siRNA knock-down of GPCR candidates, JWH-451 toxicity in T98g cells. Type of data set: cell-based. Particulars: JWH-451 1 μM, siRNA targeting GPR124, viability after three days. The method, then:
To determine which of the gene candidate encodes for AAI receptors, an siRNA approach is used to knock down each candidate individually to determine which one prevents the toxic effect of JWH-451 and thus encodes for AAI receptors. The prediction is that knocking down AAI receptors prevents the cell death induced by JWH-451. T98g cells were treated with siRNA targeting each of the 39 GPCR gene candidates individually. The first experiment was designed to knock down each GPCR candidate using a mixture of 3 siRNAs thus maximize genetic targeting efficacy. Thus, cells were incubated with siRNA mixtures and then treated with JWH-451 (1 μM) and cell viability measured after three days. Only one mixture of siRNAs (that targeting GPR124) decreased the toxicity of JWH-451. […] Two of the three siRNAs knocked-down GPR124 expression by more than 80% over 4 days (FIG. 3b). […] The killing effect induced by JWH-451 is mediated by GPR124, a AAI receptor.

As to `CCn1c(C)c(C(=O)c2ccc(C)c3ccccc23)c2ccccc21` [JWH-451, 1-Ethyl-2-methyl-3-(4-methyl-1-napthoyl)indole], the “viability of endothelial cell line bEnd.3” value in data set [1] is on record as “did not affect the viability”. For the same compound, the “JWH-451-induced killing of T98g cells when GPR124 mRNA expression is reduced” value on GPR124 was “reduced”.

The record behind these values is US9034895B2, “Composition and methods for treating glioblastoma” (University of Washington Through its Center for …, priority 2010, dated 2015).
